Source: ChEMBL document CHEMBL1201862, “PubChem BioAssay data set” (2004)
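How tested: cells in 96-well plates exposed to compound for 48 hours at five concentrations. GI50 is the concentration that inhibits growth by half.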 Active and inactive are the calls of the source. No stated cut-off is given here; in the data, active = GI50 up to about 1.1 µM and inactive = higher.

Assays:
Assay in all cases: NCI-60 cell line screen, 48 h
ACHN = system: ACHN
CCRF-CEM = system: CCRF-CEM
COLO 205 = system: COLO 205
HCT-116 = system: HCT-116
HL-60 = system: HL-60
HT-29 = system: HT-29
Hs-578T = system: Hs-578T
IGROV-1 = system: IGROV-1
LOX IMVI = system: LOX IMVI
MDA-N = system: MDA-N
Malme-3M = system: Malme-3M
NCI-H522 = system: NCI-H522
RXF 393 = system: RXF 393
SF-268 = system: SF-268
SK-MEL-28 = system: SK-MEL-28
SK-MEL-2 = system: SK-MEL-2
SK-MEL-5 = system: SK-MEL-5
SR = system: SR
SW-620 = system: SW-620
U-251 = system: U-251

SMILES	GI50 (ACHN)	GI50 (CCRF-CEM)	GI50 (COLO 205)	GI50 (HCT-116)	GI50 (HL-60)	GI50 (HT-29)	GI50 (Hs-578T)	GI50 (IGROV-1)	GI50 (LOX IMVI)	GI50 (MDA-N)	GI50 (Malme-3M)	GI50 (NCI-H522)	GI50 (RXF 393)	GI50 (SF-268)	GI50 (SK-MEL-28)	GI50 (SK-MEL-2)	GI50 (SK-MEL-5)	GI50 (SR)	GI50 (SW-620)	GI50 (U-251)
C=CCOC1=C(OC(C)=O)C(=O)OC1C1COC(C)(C)O1 (stereo not given)	21.6 µM (inactive)	21.4 µM (inactive)	29.6 µM (inactive)	26.2 µM (inactive)	18.5 µM (inactive)	30.1 µM (inactive)	32.4 µM (inactive)	37.9 µM (inactive)	18.1 µM (inactive)	30.1 µM (inactive)	21.8 µM (inactive)	17.5 µM (inactive)	26.3 µM (inactive)	48.4 µM (inactive)	17.3 µM (inactive)	> 52.6 µM (inactive)	44.6 µM (inactive)	5.58 µM (inactive)	25.6 µM (inactive)	42.5 µM (inactive)
CNC(=O)OCc1cnc([N+](=O)[O-])n1C	> 100 µM (inactive)	> 100 µM (inactive)	> 100 µM (inactive)	> 100 µM (inactive)	> 100 µM (inactive)	> 100 µM (inactive)	> 100 µM (inactive)	> 100 µM (inactive)	> 100 µM (inactive)	> 100 µM (inactive)	> 100 µM (inactive)	> 100 µM (inactive)	> 100 µM (inactive)	> 100 µM (inactive)	> 100 µM (inactive)	> 100 µM (inactive)	> 100 µM (inactive)	> 100 µM (inactive)	> 100 µM (inactive)	> 100 µM (inactive)
Clc1ccc(C2=Cc3nc2c(-c2ccccc2)c2ccc([nH]2)c(-c2ccccc2)c2nc(c(-c4ccccc4)c4ccc([nH]4)c3-c3ccccc3)C=C2)cc1	> 62.5 µM (inactive)	> 62.5 µM (inactive)	> 62.5 µM (inactive)	> 62.5 µM (inactive)	> 62.5 µM (inactive)	> 62.5 µM (inactive)	> 62.5 µM (inactive)	> 62.5 µM (inactive)	> 62.5 µM (inactive)	> 62.5 µM (inactive)	> 62.5 µM (inactive)	> 62.5 µM (inactive)	> 62.5 µM (inactive)	> 62.5 µM (inactive)	> 62.5 µM (inactive)	> 62.5 µM (inactive)	> 62.5 µM (inactive)	> 62.5 µM (inactive)	> 62.5 µM (inactive)	> 62.5 µM (inactive)
N=C(N)NS(=O)(=O)c1ccc(NC(=O)c2ccc3nc4ccccc4c(Nc4ccc(S(=O)(=O)N=C(N)N)cc4)c3c2)cc1	> 100 µM (inactive)	> 100 µM (inactive)	> 100 µM (inactive)	> 100 µM (inactive)	> 100 µM (inactive)	> 100 µM (inactive)	> 100 µM (inactive)	> 100 µM (inactive)	61.8 µM (inactive)	> 100 µM (inactive)	> 100 µM (inactive)	> 100 µM (inactive)	> 100 µM (inactive)	> 100 µM (inactive)	> 100 µM (inactive)	> 100 µM (inactive)	> 100 µM (inactive)	> 100 µM (inactive)	> 100 µM (inactive)	> 100 µM (inactive)
C1CCC(CC2CCC(NC3=NCCO3)CC2)CC1 (stereo not given)	19.5 µM (inactive)	26.1 µM (inactive)	14.2 µM (inactive)	15.5 µM (inactive)	17.9 µM (inactive)	3.93 µM (inactive)	16.3 µM (inactive)	19.7 µM (inactive)	16.1 µM (inactive)	20.3 µM (inactive)	15.8 µM (inactive)	22.2 µM (inactive)	18.3 µM (inactive)	26 µM (inactive)	18.1 µM (inactive)	18.4 µM (inactive)	19.5 µM (inactive)	24.4 µM (inactive)	21.3 µM (inactive)	18 µM (inactive)
Cc1cccc(/N=N/c2ccc(O)c(CN(C)C)c2)c1	8 µM (inactive)	0.0753 µM (active)	13.2 µM (inactive)	20.5 µM (inactive)	23.4 µM (inactive)	17.5 µM (inactive)	16 µM (inactive)	21.8 µM (inactive)	5.41 µM (inactive)	27.3 µM (inactive)	10 µM (inactive)	10.5 µM (inactive)	29 µM (inactive)	26.2 µM (inactive)	19.2 µM (inactive)	20.7 µM (inactive)	14 µM (inactive)	43.1 µM (inactive)	18.2 µM (inactive)	45.9 µM (inactive)
CCCCCCCCCCCCCCCCCCNc1ccn(C2OC(COP(=O)(O)OCC3OC(n4cc(C)c(=O)[nH]c4=O)CC3F)C(O)C2O)c(=O)n1 (stereo not given)	13 µM (inactive)	4.61 µM (inactive)	3.34 µM (inactive)	10.2 µM (inactive)	5.46 µM (inactive)	7.69 µM (inactive)	11.1 µM (inactive)	5.78 µM (inactive)	7.59 µM (inactive)	8.15 µM (inactive)	15 µM (inactive)	4.29 µM (inactive)	1.67 µM (inactive)	8.59 µM (inactive)	8.87 µM (inactive)	9.14 µM (inactive)	9.89 µM (inactive)	1.44 µM (inactive)	5.86 µM (inactive)	7.26 µM (inactive)
